Laboratory results as given in patent US20240317736A1, “DEUTERATED DERIVATIVE AS ATX INHIBITOR, AND APPLICATION THEREOF” (Xizang Haisco Pharmaceutical Co., Ltd., priority 2020, published 2024).
Where two headings read alike, the source gives them in different places.

Tests used:
[1] = Pharmacokinetic test in dogs; type: in vivo, male beagles; details: male, beagle, dog, plasma; for Cmax: read-out: C0 or Cmax
Experimental: Test objective: the pharmacokinetic characteristics and bioavailability of test compounds in dogs were evaluated.
Test animals: twelve male beagles, 8-10 kg, 0.5-1.5 years old, purchased from Beijing Marshall Biotechnology Co. Ltd., with the production license number of SCXK (JING) 2016-001.
Vehicle for intravenous administration: 5% DMSO+5% Solutol+90% Saline; • vehicle for intragastric administration: 1% DMSO+1% Solutol+98% (0.5% MC);
(§1) Before and after the administration, 1.0 mL of blood was taken from the veins of the forelimbs and placed in an EDTAK2 centrifuge tube. The blood was centrifuged at 5000 rpm at 4° C. for 10 min, and plasma was collected. Time points for blood collection: 0 min, 5 min, 15 min, 30 min, 1 h, 2 h, 4 h, 6 h, 8 h, 10 h, 12 h and 24 h. Before analysis and detection, all plasma samples were stored at −80° C.

hERG potassium channel = hERG potassium channel (Homo sapiens, UniProt Q12809); assay: cell-based
Experimental: The effect of the example compounds on the current of an hERG potassium channel (human Ether-à-go-go Related Gene potassium channel) was tested by 10 means of an electrophysiological manual patch-clamp method.
HEK293 cell lines stably expressing hERG ion channels were purchased from Invitrogen.
A test compound was firstly dissolved in DMSO and prepared into a stock solution with a final concentration of 30 mM. […] Five working solutions with different gradient concentrations were used to determine the potential inhibitory effect of the compound on the hERG potassium channel and used to fit a dose-response curve and calculate IC50.
A small slide carrying HEK293 cells in a culture dish was placed in a perfusion tank on a micromanipulator. • 2. […] The peak value of the tail current was the magnitude of hERG currents. • 9 The hERG currents used to detect the test compounds were continuously recorded for 120 seconds prior to administration, thereby evaluating the stability of test cells generating hERG currents. […] The inhibitory effects of the test compounds on hERG currents were tested as follows: firstly, the hERG current measured in the extracellular fluid containing 0.1% DMSO was used as a test baseline. […] Upon completion of each perfusion, waiting about 5 min allowed the compounds to be fully acted on the cells, and the hERG currents were recorded synchronously. […]

[2] = target: T1, autocrine motility factor (Homo sapiens, UniProt Q13822); assay: Inhibition of LPA formation in mixed ex vivo human plasma; type: biochemical; details: 37° C., 2 h
T1 construct: Whole blood was anticoagulated with heparin and centrifuged, and then plasma was collected; from tissue; host or cells: pooled human plasma (heparin-anticoagulated whole blood)
Experimental: Autocrine motility factor is a phosphodiesterase in plasma that converts lysophosphatidylcholine (LPC) to lysophosphatidic acid (LPA). Therefore, the formation of LPA can be used to evaluate the potency of an autocrine motility factor inhibitor. The potency of the compound in mixed ex vivo human plasma was evaluated.
Whole blood was anticoagulated with heparin and centrifuged, and then plasma was collected. 5 μL of gradient-diluted test compounds or DMSO was added to 95 μL of plasma and incubated at 37° C. for 2 h. After that, a stop buffer (40 mM disodium hydrogen phosphate buffer, containing 30 mM of citric acid, pH=4) was added. LPA in plasma was detected by LC-MSMS before and after incubation. In order to determine the concentration of LPA 18:2 or LPA 20:4 in the plasma in study, calibration standard substances at 20000 ng/mL, 10000 ng/mL, 5000 ng/ml, 2000 ng/ml, 1000 ng/mL, 500 ng/mL, 200 ng/ml, 100 ng/mL, 50 ng/ml, 20 ng/mL and 10 ng/ml for LPA 18:2 or LPA 20:4 were prepared by performing serial dilution in butanol. 3 μL of calibration standard solution was added to 27.0 μL of blank plasmas in each 1.5 mL microcentrifuge tube to produce 1× calibration standard substances. 30.0 μL of standard substances or plasma in study was added to each 1.5 mL microcentrifuge tube. 200 μL of butanol (containing 25.0 ng/mL LPA 17:0 for internal control) was added to each 1.5 mL microcentrifuge tube containing the plasma in study or calibration standard substance. Vortex oscillation was performed for 1 min, and centrifugation was performed at 10000 rpm for 10 min. 180 μL of the supernatant was transferred to a 96-well plate, and LC/MS/MS was used together with the standard substance to quantify the concentration of LPA 18:2 in the plasma. In short, 8 μL of the solution was injected, and LC-MS/MS analysis using an ACQUITY UPLC BEH C18 column (2.1×50 mm, 1.7 μm) was performed, wherein mobile phase A [20 mM NH4OAC aqueous solution (0.1% FA)] and mobile phase B [5 mM NH4OAC aqueous solution/0.2% FA in ACN=5:95] were used. The parameters of a mass spectrometer for LPA 18:2 were optimized by means of deprotonation of molecular ions. For LPA 18:2 at m/z 433.2([M−H]−), LPA 20:4 at 457.2, and LPA 18:2 and LPA 20:4 both at m/z 152.8, abundant product ions were obtained. Quantitative data were obtained in a multiple reaction monitoring (MRM) negative electrospray ionization mode.
The inhibition rates of compounds at different concentrations on LPA formation were determined by comparing the changes of LPA levels in incubated and unincubated plasma. The IC50 of the compounds was calculated as a calculation inhibition rate, and the relative concentration at each well=the concentration at each well−the average concentration at baseline.
Inhibition rate %=(average relative concentration at control well−average relative concentration at test well)/average relative concentration at control well×100%. The curve was plotted with the inhibition rates as a y axis and the compound concentrations as an x axis, and fitting was performed by GraphPad Prism7.0 using log (inhibitor) and normalized response (variable slope).

[3] = Pharmacokinetic test in monkeys; type: in vivo, Cynomolgus macaques; details: male, cynomolgus monkey, plasma; for Cmax: read-out: C0 or Cmax
Experimental: Test objective: the pharmacokinetic characteristics and bioavailability of test compounds in monkeys were evaluated.
Test animals: twelve male Cynomolgus macaques, 2.4-5.9 kg, 3-5.5 years old, purchased from Suzhou Xishan Zhongke Laboratory Animal Co., Ltd., with the production license number of SCXK (SU) 2018-0001.
Vehicle for intravenous administration: 5% DMSO+5% Solutol+90% Saline; • vehicle for intragastric administration: 1% DMSO+1% Solutol+98% (0.5% CMC-Na)
as §1

[4] = Pharmacokinetic test in mice; type: in vivo; details: male, C57, mouse, plasma; for Cmax: read-out: C0 or Cmax
Experimental: Test objective: the pharmacokinetic characteristics and bioavailability of test compounds in mice were evaluated.
Test animals: thirty-six C57 male mice, about 25 g, 6-8 weeks old, purchased from Chengdu Ddossy Experimental Animals Co., Ltd., with the production license number of SCXK (CHUAN) 2020-030.
Vehicle for intravenous administration: 5% DMA+5% Solutol+90% Saline; vehicle for intragastric administration: 0.5% MC
as §1, with “0.06” for “1.0”, “orbits under isoflurane anaesthesia” for “veins of the forelimbs”, “10” for “10 h, 12”

Sequence of hERG potassium channel (Q12809 whole entry): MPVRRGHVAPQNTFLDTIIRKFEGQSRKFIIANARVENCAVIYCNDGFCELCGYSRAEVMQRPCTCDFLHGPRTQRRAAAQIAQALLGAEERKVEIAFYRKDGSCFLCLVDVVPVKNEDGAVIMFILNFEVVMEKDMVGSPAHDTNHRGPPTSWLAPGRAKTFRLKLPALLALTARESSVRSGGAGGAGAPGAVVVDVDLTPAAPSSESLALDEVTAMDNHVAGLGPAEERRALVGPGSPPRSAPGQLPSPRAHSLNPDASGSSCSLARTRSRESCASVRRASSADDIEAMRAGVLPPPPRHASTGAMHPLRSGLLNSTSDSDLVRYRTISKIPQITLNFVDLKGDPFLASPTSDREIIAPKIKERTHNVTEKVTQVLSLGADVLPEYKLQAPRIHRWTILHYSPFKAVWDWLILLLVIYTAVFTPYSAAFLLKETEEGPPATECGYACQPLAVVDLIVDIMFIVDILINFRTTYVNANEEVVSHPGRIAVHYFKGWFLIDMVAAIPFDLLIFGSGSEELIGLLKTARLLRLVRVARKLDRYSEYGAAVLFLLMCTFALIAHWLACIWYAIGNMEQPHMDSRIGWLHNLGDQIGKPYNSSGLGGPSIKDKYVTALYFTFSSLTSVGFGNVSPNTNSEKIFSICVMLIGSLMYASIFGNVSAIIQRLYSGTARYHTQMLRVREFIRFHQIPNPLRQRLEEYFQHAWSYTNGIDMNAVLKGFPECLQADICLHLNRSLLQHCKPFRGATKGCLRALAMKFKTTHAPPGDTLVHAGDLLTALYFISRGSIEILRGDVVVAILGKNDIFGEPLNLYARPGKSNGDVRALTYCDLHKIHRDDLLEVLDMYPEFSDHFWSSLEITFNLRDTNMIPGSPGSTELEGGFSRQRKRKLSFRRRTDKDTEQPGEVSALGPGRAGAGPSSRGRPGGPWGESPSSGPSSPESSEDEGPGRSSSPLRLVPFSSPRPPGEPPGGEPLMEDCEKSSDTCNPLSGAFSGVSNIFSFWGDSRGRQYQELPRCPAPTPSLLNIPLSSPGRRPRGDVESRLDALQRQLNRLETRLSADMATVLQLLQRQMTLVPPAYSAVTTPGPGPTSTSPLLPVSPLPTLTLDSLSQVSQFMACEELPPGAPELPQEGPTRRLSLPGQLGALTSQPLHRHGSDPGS

AUC ([1]; IV 1 mg/kg): 6840 ± 883 ng·h/mL
half-life ([1]; IV 1 mg/kg): 6.96 ± 1.5 h
Cmax ([1]; IV 1 mg/kg): 1490 ± 451 ng/mL
AUC ([1]; PO 2 mg/kg): 15900 ± 2980 ng·h/mL
Tmax ([1]; PO 2 mg/kg): 1.67 ± 0.58 h
half-life ([1]; PO 2 mg/kg): 7.19 ± 0.75 h
bioavailability ([1]; PO 2 mg/kg vs IV 1 mg/kg): 116 ± 22%
Cmax ([1]; PO 2 mg/kg): 1620 ± 176 ng/mL
IC50 ([2]; LPA 18:2 by LC-MS/MS, read-out: IC50 for inhibiting LPA formation (18:2)): 0.0427 µM
IC50 ([2]; LPA 20:4 by LC-MS/MS, read-out: IC50 for inhibiting LPA formation (20:4)): 0.0445 µM
AUC ([3]; IV 1 mg/kg): 2010 ± 621 ng·h/mL
half-life ([3]; IV 1 mg/kg): 2.96 ± 1 h
Cmax ([3]; IV 1 mg/kg): 1040 ± 116 ng/mL
AUC ([3]; PO 5 mg/kg): 3120 ± 492 ng·h/mL
Tmax ([3]; PO 5 mg/kg): 1.33 ± 0.58 h
half-life ([3]; PO 5 mg/kg): 4.02 ± 0.59 h
Cmax ([3]; PO 5 mg/kg): 657 ± 170 ng/mL
AUC ([4]; IV 1 mg/kg): 1490 ng·h/mL
half-life ([4]; IV 1 mg/kg): 1.56 h
Cmax ([4]; IV 1 mg/kg): 1110 ng/mL
AUC ([4]; PO 10 mg/kg): 9600 ng·h/mL
Tmax ([4]; PO 10 mg/kg): 0.25 h
half-life ([4]; PO 10 mg/kg): 2.14 h
bioavailability ([4]; PO 10 mg/kg vs IV 1 mg/kg): 64.5%
Cmax ([4]; PO 10 mg/kg): 1300 ng/mL
SMILES: [2H]C([2H])([2H])N(c1nc(-c2ccc(F)cc2)c(C#N)s1)c1c(CC)nn2cc(F)c(N3CCN(CC(=O)N4CC(O)C4)CC3)cc12 [Compound 3, 2-((2-ethyl-6-fluoro-5-(4-(2-(3-hydroxyazetidin-1-yl)-2-oxoethyl)piperazin-1-yl)pyrazolo[1,5-a]pyridin-3-yl)(methyl-d3)amino)-4-(4-fluorophenyl)thiazole-5-carbonitrile]
IC50 (hERG potassium channel): 23.1 µM
